Measurements reported in the NIST ThermoML archive (doi:10.1021/je060271a).
Several values for one entry are separate records, joined by “and”; a condition that tells them apart may be missing. Identical values can stand only once. Numbers after ± are expanded uncertainties.

Settings: 283.15 K, Liquid, Vibrating tube method

CCCCCC(=O)OCC(COC(=O)CCCCC)(COC(=O)CCCCC)COC(=O)CCCCC [pentaerythritol tetrahexanoate]
Settings	mass density
5731.2 kPa	1007.5 ± 1.2 kg/m3
5738.3 kPa	1007.6 ± 1.2 kg/m3
5746.2 kPa	1007.4 ± 1.2 kg/m3
5753.3 kPa	1007.5 ± 1.2 kg/m3
5760 kPa	1007.4 ± 1.2 kg/m3
5767.3 kPa	1007.5 ± 1.2 kg/m3
5775.5 kPa	1007.5 ± 1.2 kg/m3
5783.9 kPa	1007.6 ± 1.2 kg/m3
5790.7 kPa	1007.4 ± 1.2 kg/m3
5797.8 kPa	1007.5 ± 1.2 kg/m3
5804.7 kPa	1007.5 ± 1.2 kg/m3
5812.8 kPa	1007.6 ± 1.2 kg/m3
5819.9 kPa	1007.5 ± 1.2 kg/m3
5826.8 kPa	1007.5 ± 1.2 kg/m3
5833.7 kPa	1007.4 ± 1.2 kg/m3
5842.2 kPa	1007.5 ± 1.2 kg/m3
5849.3 kPa	1007.5 ± 1.2 kg/m3
5856.6 kPa	1007.5 ± 1.2 kg/m3
5863.6 kPa	1007.7 ± 1.2 kg/m3
5872 kPa	1007.5 ± 1.2 kg/m3
5878.9 kPa	1007.5 ± 1.2 kg/m3
5885.8 kPa	1007.5 ± 1.2 kg/m3
5894.4 kPa	1007.7 ± 1.2 kg/m3
5901.3 kPa	1007.5 ± 1.2 kg/m3
5908.3 kPa	1007.6 ± 1.2 kg/m3
5915.7 kPa	1007.5 ± 1.2 kg/m3
5924.3 kPa	1007.6 ± 1.2 kg/m3
5930 kPa	1007.7 ± 1.2 kg/m3
5935.7 kPa	1007.7 ± 1.2 kg/m3
5942.8 kPa	1007.6 ± 1.2 kg/m3
5953 kPa	1007.5 ± 1.2 kg/m3
5960.1 kPa	1007.6 ± 1.2 kg/m3
5968.6 kPa	1007.6 ± 1.2 kg/m3
5976.4 kPa	1007.6 ± 1.2 kg/m3
5984.7 kPa	1007.6 ± 1.2 kg/m3
5991.9 kPa	1007.6 ± 1.2 kg/m3
5999.2 kPa	1007.7 ± 1.2 kg/m3
6006.6 kPa	1007.7 ± 1.2 kg/m3
6015.4 kPa	1007.6 ± 1.2 kg/m3
6022.9 kPa	1007.7 ± 1.2 kg/m3
6030.1 kPa	1007.6 ± 1.2 kg/m3
6038.8 kPa	1007.8 ± 1.2 kg/m3
6046 kPa	1007.6 ± 1.2 kg/m3
6053.1 kPa	1007.6 ± 1.2 kg/m3
6061.9 kPa	1007.7 ± 1.2 kg/m3
6069.2 kPa	1007.6 ± 1.2 kg/m3
6076.6 kPa	1007.8 ± 1.2 kg/m3
6084.1 kPa	1007.7 ± 1.2 kg/m3
6092.7 kPa	1007.8 ± 1.2 kg/m3
6100.3 kPa	1007.7 ± 1.2 kg/m3
6107.6 kPa	1007.6 ± 1.2 kg/m3
6115.2 kPa	1007.6 ± 1.2 kg/m3
6124 kPa	1007.8 ± 1.2 kg/m3
6131.6 kPa	1007.7 ± 1.2 kg/m3
6139 kPa	1007.7 ± 1.2 kg/m3
6146.6 kPa	1007.7 ± 1.2 kg/m3
6155.4 kPa	1007.7 ± 1.2 kg/m3
6163 kPa	1007.7 ± 1.2 kg/m3
6170.1 kPa	1007.8 ± 1.2 kg/m3
6179.1 kPa	1007.7 ± 1.2 kg/m3
6186.9 kPa	1007.6 ± 1.2 kg/m3
6194.5 kPa	1007.8 ± 1.2 kg/m3
6202.1 kPa	1007.8 ± 1.2 kg/m3
6209.7 kPa	1007.9 ± 1.2 kg/m3
6218.9 kPa	1007.8 ± 1.2 kg/m3
6226.1 kPa	1007.8 ± 1.2 kg/m3
6233.7 kPa	1007.8 ± 1.2 kg/m3
6242.7 kPa	1007.8 ± 1.2 kg/m3
6250.3 kPa	1007.9 ± 1.2 kg/m3
6257.9 kPa	1007.8 ± 1.2 kg/m3
6265.5 kPa	1007.8 ± 1.2 kg/m3
6274.9 kPa	1007.7 ± 1.2 kg/m3
6282.3 kPa	1007.9 ± 1.2 kg/m3
6290.1 kPa	1007.8 ± 1.2 kg/m3
6299.1 kPa	1007.7 ± 1.2 kg/m3
6306.5 kPa	1007.9 ± 1.2 kg/m3
6314.3 kPa	1007.8 ± 1.2 kg/m3
6323.1 kPa	1007.8 ± 1.2 kg/m3
6330.4 kPa	1007.8 ± 1.2 kg/m3
6338.1 kPa	1007.8 ± 1.2 kg/m3
6346.1 kPa	1007.8 ± 1.2 kg/m3
6355.4 kPa	1007.9 ± 1.2 kg/m3
6362.3 kPa	1007.8 ± 1.2 kg/m3
6369.9 kPa	1007.8 ± 1.2 kg/m3
6377.7 kPa	1007.8 ± 1.2 kg/m3
6386.6 kPa	1007.9 ± 1.2 kg/m3
6394.2 kPa	1007.9 ± 1.3 kg/m3
6401.7 kPa	1007.9 ± 1.2 kg/m3
6409.5 kPa	1007.9 ± 1.2 kg/m3
6418.4 kPa	1007.9 ± 1.2 kg/m3
6426 kPa	1007.9 ± 1.2 kg/m3
6433.3 kPa	1007.9 ± 1.2 kg/m3
6442.5 kPa	1007.9 ± 1.2 kg/m3
6450.4 kPa	1007.9 ± 1.2 kg/m3
6458.4 kPa	1007.9 ± 1.2 kg/m3
6466.9 kPa	1007.9 ± 1.2 kg/m3
6474.6 kPa	1007.9 ± 1.2 kg/m3
6481.9 kPa	1008 ± 1.2 kg/m3
6491.1 kPa	1007.8 ± 1.2 kg/m3
6498.3 kPa	1008 ± 1.2 kg/m3
6505.6 kPa	1008 ± 1.2 kg/m3
6514.4 kPa	1007.8 ± 1.2 kg/m3
6522 kPa	1007.9 ± 1.2 kg/m3
6529.2 kPa	1007.9 ± 1.2 kg/m3
6536.7 kPa	1008 ± 1.2 kg/m3
6545 kPa	1008 ± 1.2 kg/m3
6552.2 kPa	1007.9 ± 1.2 kg/m3
6559.5 kPa	1008.1 ± 1.2 kg/m3
6566.4 kPa	1007.9 ± 1.2 kg/m3
6573.6 kPa	1008 ± 1.2 kg/m3
6578.7 kPa	1007.9 ± 1.2 kg/m3
6583 kPa	1008 ± 1.2 kg/m3
6587.1 kPa	1008 ± 1.2 kg/m3
6592.1 kPa	1007.9 ± 1.2 kg/m3
6596.3 kPa	1008 ± 1.2 kg/m3
6600.4 kPa	1008.1 ± 1.2 kg/m3
6605.4 kPa	1007.9 ± 1.2 kg/m3
6609.2 kPa	1007.9 ± 1.2 kg/m3
6613.4 kPa	1007.9 ± 1.2 kg/m3
6635.7 kPa	1008 ± 1.2 kg/m3
6640 kPa	1008 ± 1.2 kg/m3
6644.1 kPa	1008.1 ± 1.2 kg/m3
6649 kPa	1008 ± 1.2 kg/m3
6674.5 kPa	1008 ± 1.2 kg/m3
6679.6 kPa	1008 ± 1.2 kg/m3
6683.5 kPa	1008.1 ± 1.2 kg/m3
6687.7 kPa	1008.1 ± 1.2 kg/m3
6692 kPa	1008.1 ± 1.2 kg/m3
6696.5 kPa	1008 ± 1.2 kg/m3
6700.6 kPa	1008 ± 1.2 kg/m3
6704.6 kPa	1008 ± 1.2 kg/m3
6708.6 kPa	1008 ± 1.2 kg/m3
6713.2 kPa	1008 ± 1.2 kg/m3
6717.2 kPa	1008.1 ± 1.2 kg/m3
6759.5 kPa	1008.1 ± 1.2 kg/m3
6769.5 kPa	1008.2 ± 1.2 kg/m3 and 1008.1 ± 1.2 kg/m3
6769.7 kPa	1008.1 ± 1.2 kg/m3 and 1008 ± 1.2 kg/m3
6769.8 kPa	1008 ± 1.2 kg/m3 and 1008.2 ± 1.2 kg/m3 and 1008.1 ± 1.2 kg/m3
6770 kPa	1008.1 ± 1.2 kg/m3
6770.2 kPa	1008 ± 1.2 kg/m3 and 1008.1 ± 1.2 kg/m3
6770.3 kPa	1008.1 ± 1.2 kg/m3
6770.4 kPa	1008.1 ± 1.2 kg/m3
6770.5 kPa	1008.1 ± 1.2 kg/m3
6770.7 kPa	1008 ± 1.2 kg/m3
6770.9 kPa	1008 ± 1.2 kg/m3 and 1008.1 ± 1.2 kg/m3
